Experimental data reported in publication PMC10035904, “Synthesis of novel sulphamethoxazole derivatives and exploration of their anticancer and antimicrobial properties” (PLOS ONE, 2023).
Read-outs that look alike come from different tables or passages of the source.

Tests used:
[1] = tested on: human clear cell renal cell carcinoma line (CaKi-1); test: MTT cell viability assay, CaKi-1; type: cell-based; conditions: 72 hours of incubation, n = 3, read-out: EC50 against CaKi-1
Description: (§1) The human clear cell renal cell carcinoma line (CaKi-1) was obtained from American Type Culture Collection (ATCC, Manassas, VA). The human prostate carcinoma cell line PPC-1 was originally obtained from ATCC and kindly provided by Prof. Tambet Teesalu (University of Tartu, Estonia). Human foreskin fibroblasts (HF) CRL-4001 were originally obtained from ATCC and kindly provided by Prof. Helder Santos (University of Helsinki, Finland). Cells were cultured in Dulbecco’s Modified Eagle’s GlutaMAX medium (Gibco (Carlsbad, CA, USA) supplemented with 10,000 U/mL penicillin, 10 mg/mL streptomycin (Gibco), and 10% fetal bovine serum (Gibco). During cell passaging, Tryple Express reagent (Gibco) was used for cell detachment. Cell cultures were grown at 37°C in a humidified atmosphere containing 5% CO2. They were used until the passage of 20.
(§2) The effect of synthesized compounds on cell viability was studied using 3-(4,5-dimethylthiazol-2-yl)-2,5-diphenyltetrazolium bromide (MTT; Sigma-Aldrich Co., St Louis, MO, USA) assay, as described elsewhere. […] The absorbance was measured at 570 and 630 nm using a multi-detection microplate reader. The compound effect on cell viability was calculated using a formula (1): Relativecellviability%=A−A0/ANC−A0 (1) Where: […]

[2] = tested on: Human foreskin fibroblasts (HF) CRL-4001; test: MTT cell viability assay, fibroblasts HF; type: cell-based; conditions: Fibroblast, 72 hours of incubation, n = 3, read-out: EC50 against HF
Description: as §1, §2

[3] = tested on: human prostate carcinoma cell line PPC-1; test: MTT cell viability assay, PPC-1; type: cell-based; conditions: 72 hours of incubation, n = 3, read-out: EC50 against PPC-1
Description: as §1, §2

[4] = tested on: HF, PPC-1, and CaKi-1 cells; test: MTT cell viability screen at 100 μM (cell line not given); type: cell-based, human; conditions: 72 h, cell line not stated
Description: The effect of synthesized compounds on cell viability was studied using 3-(4,5-dimethylthiazol-2-yl)-2,5-diphenyltetrazolium bromide (MTT; Sigma-Aldrich Co., St Louis, MO, USA) assay, as described elsewhere. Briefly, HF, PPC-1, and CaKi-1 cells were seeded in 96-well plates (Corning) in triplicates at a volume of 100 μL at a concentration of 4 × 10^3 cells/well. After 24 h of incubation, the cells were treated with 100 μM of tested compounds. After 72 h, the MTT reagent (at 0.5 mg/mL concentration) has been added to the wells, and cells were incubated for 4 h. Then the medium was aspirated, and the formed purple crystals were dissolved in 100 μL DMSO (Sigma-Aldrich Co.). The absorbance was measured at 570 and 630 nm using a multi-detection microplate reader. The compound effect on cell viability was calculated using a formula (1): Relativecellviability%=A−A0/ANC−A0 (1) Where: […]

CaKi-1 cells = conditions: cited from earlier work

Cc1cc(NS(=O)(=O)c2ccc(NCCC(=O)NN=Cc3cccc4ccccc34)cc2)no1 [Compound 15k, N-(5-methylisoxazol-3-yl)-4-((3-(2-(naphthalen-1-ylmethylene)hydrazineyl)-3-oxopropyl)amino)-benzenesulfonamide]
EC50 [1]: > 100 µM | EC50 [2]: > 100 µM | melting point: 206 to 207 °C | EC50 [3]: > 100 µM | reduced cell viability up to about [4]: about 40%

CCN(CC)CCNC(=O)c1c(C)[nH]c(/C=C2\C(=O)Nc3ccc(F)cc32)c1C [sunitinib]
EC50 (CaKi-1 cells; read-out: EC50 against CaKi-1 cells): 2.2 µM

Cc1ccc(Nc2nccc(N(C)c3ccc4c(C)n(C)nc4c3)n2)cc1S(N)(=O)=O [pazopanib]
EC50 (CaKi-1 cells; after 72 hours of incubation, read-out: EC50 (renal cancer drugs, compared with CaKi-1 data)): 30 µM
